Data taken from patent US7687079B2, “Methods of treating ileus” (priority 2002, dated 2010).

Key:
[1] = tested on: small intestinal circular muscle; assay: in vitro circular muscle contractility (spontaneous and bethanechol-stimulated) after SITx; assay type: in vivo, rat
Protocol: To determine whether CO is protective against ileus associated with small bowel transplantation, orthotopic SITx was performed in syngenic Lewis rats. SITx with caval drainage was performed using a previously described procedure. […] The graft was perfused via the aortic segment with 5 ml chilled Ringer's lactate solution, and the intestinal lumen was irrigated with 20 ml of cold saline solution containing 0.5% neomycin-sulfate (Sigma, St. Louis, Mo.). End-to-side anastomoses between the graft aorta and the recipient infrarenal aorta, and between the graft portal vein and recipient vena cava, were performed with 10-0 Novafil™ suture. The cold ischemic time was 1 hour. The entire recipient intestine was removed and the enteric continuity was restored by proximal and distal end-to-end intestinal anastomoses. Recipient animals were given 20 mg/day prophylactic cefamandole nafate for 3 postoperative days. Transplanted recipients were given water 3 hours after surgery, and were fed 24 hours after surgery.
Four groups of animals were examined in this study, two of which received a SITx. Group 1 consisted of unoperated normal rats. Group 2 animals were exposed to CO with no surgery. In Group 3, syngeneic SITx were performed and the recipients kept in room air. Group 4 consisted of SITx recipients that were placed in the CO chamber for 1 hour before surgery and then re-exposed to CO immediately following surgery until sacrificed. In both Groups 3 and 4, normal LEW rats served as donors.
The animals were exposed to CO at a concentration of 250 ppm. Briefly, 1% CO in air was mixed with air (21% oxygen) in a stainless steel mixing cylinder and then directed into a 3.70 ft^3 glass exposure chamber at a flow rate of 12 L/min. A CO analyzer (Interscan, Chatsworth, Calif.) was used to measure CO levels continuously in the chamber. CO concentrations were maintained at 250 ppm at all times. The animals were supplied food and water during the exposures.
The effect of CO treatment on intestinal dysmotility in transplanted grafts was assessed both in vitro and in vivo. […] In vitro circular muscle mechanical activity was measured as previously described (Eskandari et al., Am. J. Physiol. 273(3 Pt 1):G727-34 (1997)). Rats were anesthetized and killed by exsanguination 24 hours post-operatively. A segment of mid-jejunum was pinned in a Sylgaard™ lined dissecting dish containing pre-oxygenated Krebs-Ringer-bicarbonate buffer (KRB; in mM: 137.4 Na^+, 5.9 K^+, 2.5 Ca^2+, 1.2 Mg^2+, 134 Cl^−, 15.5 HCO3^−, 1.2 H2PO4^−, and 11.5 glucose) that was equilibrated with 97% O2/3% CO2. The intestine was opened along the mesenteric border and the mucosa removed by stripping with fine forceps. Full-thickness strips of muscularis (1×6 mm) were cut parallel to the circular muscle layer. Muscle strips were mounted in standard horizontal mechanical organ chambers that were continuously superfused with pre-oxygenated KRB maintained at 37° C. One end of each strip was attached by ligature to a fixed post and the other to an isometric force transducer (WPI, Sarasota, Fla.). Strips were allowed to equilibrate for 1 hour, after which they were incrementally stretched to the length at which maximal spontaneous contraction occurred (Lo). […] Contractile activity was calculated by integrating the area under the trace, normalized by converting the weight and length of the strip to square millimeters of tissue (1.03 mg/mm^2), and reported as g/s/mm^2.

IL-1β mRNA = IL-1β mRNA in muscularis after IM (real time RT-PCR); assay type: in vivo, mouse; conditions: IM + CO vs IM, 6 hr
Protocol: Pro- and anti-inflammatory gene expression was determined by real time RT-PCR. The small intestinal muscularis externa was collected at 4 time points (3, 6, 12, and 24 hr) postoperatively and snap frozen in liquid nitrogen. Total RNA extraction was performed using the guanidium-thiocyanate phenol-chloroform extraction method as described in Eskandari et al. (Id.) RNA pellets were resuspended in RNA-secure resuspension solution (Ambion Inc., Austin, Tex.), followed by removal of potential contaminating DNA by treatment with DNase I (DNA-Free Kit, Ambion Inc., Austin, Tex.). Equal aliquots (5 μg) of total RNA from each sample were quantified by spectrophotometry (wavelength […]). Peak mRNA expression was quantified in duplicate by SYBR Green two-step, real-time RT-PCR. β-actin was used as the endogenous reference. […] Real-time PCR data were plotted as the ΔRn fluorescence signal versus the cycle number. […] Quantification of mRNA expression was normalized to β-actin and calculated relative to control using the comparative CT method.
To exclude PCR amplification of contaminating genomic DNA, RT-negative controls (samples containing RNA which was not reverse transcribed) were included in each PCR reaction. […] PCR amplification efficiency of each target cDNA was measured by determining the colinearity of serial dilutions. […]

`[C-]#[O+]` [CO, carbon monoxide] was tested, and the peak contractile force ([1]; SITx + CO 250 ppm, 100 μM bethanechol) was 3.6±0.7 g/mm^2/s, the Contractile force ([1]; SITx + CO, Table 2) was 3.0 ± 0.4 g/s/mm^2 and the spontaneous contractile activity ([1]; transplanted (SITx) rats, CO 250 ppm, 24 hours after reperfusion) was “restored”. For the same compound, the peak contractile force ([1]; unoperated animals treated with CO 250 ppm, bethanechol) was 3.2±0.5 g/mm^2/s, the spontaneous contractile activity ([1]; unoperated control rats, CO 250 ppm for 24 hours) was “no effect” and the “peak IL-1β mRNA expression” value (IL-1β mRNA) was “significantly inhibited”.
